According to ChEMBL document CHEMBL1201862, “PubChem BioAssay data set” (2004):
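1) Cells in 96-well plates. 2) Compound, 48 h, 5 concentrations. 3) Linear interpolation between surrounding doses. 4) Unreached endpoint = highest concentration. Abbreviation: GI50, concentration required for 50% inhibition of growth.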 Active and inactive are the calls of the source. Rule as the data show it: active = GI50 up to about 1.1 µM and inactive = higher.

Assays:
Test in all cases: growth of human tumour cells (NCI), 48 h
A498 = test system: A498
A549 = test system: A549
BT-549 = test system: BT-549
CAKI-1 = test system: CAKI-1
CCRF-CEM = test system: CCRF-CEM
COLO 205 = test system: COLO 205
EKVX = test system: EKVX
HOP-92 = test system: HOP-92
HT-29 = test system: HT-29
Hs-578T = test system: Hs-578T
M14 = test system: M14
MDA-MB-231 = test system: MDA-MB-231
MDA-MB-435 = test system: MDA-MB-435
Malme-3M = test system: Malme-3M
OVCAR-5 = test system: OVCAR-5
SF-539 = test system: SF-539
SK-MEL-28 = test system: SK-MEL-28
SNB-75 = test system: SNB-75
SW-620 = test system: SW-620
TK-10 = test system: TK-10

| SMILES | GI50 (A498) | GI50 (A549) | GI50 (BT-549) | GI50 (CAKI-1) | GI50 (CCRF-CEM) | GI50 (COLO 205) | GI50 (EKVX) | GI50 (HOP-92) | GI50 (HT-29) | GI50 (Hs-578T) | GI50 (M14) | GI50 (MDA-MB-231) | GI50 (MDA-MB-435) | GI50 (Malme-3M) | GI50 (OVCAR-5) | GI50 (SF-539) | GI50 (SK-MEL-28) | GI50 (SNB-75) | GI50 (SW-620) | GI50 (TK-10) |
| --- | --- | --- | --- | --- | --- | --- | --- | --- | --- | --- | --- | --- | --- | --- | --- | --- | --- | --- | --- | --- |
| Cc1cc(S(=O)(=O)Nc2n[nH]c(-c3ccc(Cl)cc3)n2)c(SSc2cc(Cl)c(C)cc2S(=O)(=O)Nc2n[nH]c(-c3ccc(Cl)cc3)n2)cc1Cl | 24.6 µM (inactive) | 41.5 µM (inactive) | 40.6 µM (inactive) | 34.2 µM (inactive) | 25.9 µM (inactive) | 25.9 µM (inactive) | 32.5 µM (inactive) | 25.1 µM (inactive) | 23.6 µM (inactive) | 28.2 µM (inactive) | 39.9 µM (inactive) | 31.3 µM (inactive) | 31.7 µM (inactive) | 46.3 µM (inactive) | 22 µM (inactive) | 40.8 µM (inactive) | 33 µM (inactive) | 27.9 µM (inactive) | 24.8 µM (inactive) | 58.3 µM (inactive) |
| C=CCO/N=C/c1cc(/N=C(/S)c2ccoc2C)ccc1Cl | 20 µM (inactive) | 21 µM (inactive) | 16.2 µM (inactive) | 9.84 µM (inactive) | 33.3 µM (inactive) | 12.4 µM (inactive) | 11.9 µM (inactive) | 17.3 µM (inactive) | 10.3 µM (inactive) | 24.4 µM (inactive) | 16.6 µM (inactive) | 13.3 µM (inactive) | 19.1 µM (inactive) | 15 µM (inactive) | 16.6 µM (inactive) | 25.4 µM (inactive) | 37.8 µM (inactive) | 15.7 µM (inactive) | 33.8 µM (inactive) | 16.6 µM (inactive) |
| Cc1cc(O)ccc1C1(c2ccc(F)cc2)OC(=O)c2ccccc21 (stereo not drawn) | 13.6 µM (inactive) | 5.24 µM (inactive) | 0.208 µM (active) | 3.78 µM (inactive) | 28.3 µM (inactive) | 1.82 µM (inactive) | 3.18 µM (inactive) | 1.99 µM (inactive) | 5.09 µM (inactive) | 0.263 µM (active) | 13.6 µM (inactive) | 7.01 µM (inactive) | 13.8 µM (inactive) | 12.7 µM (inactive) | 6.64 µM (inactive) | 2.99 µM (inactive) | 13.1 µM (inactive) | 1.93 µM (inactive) | 12.9 µM (inactive) | 4.01 µM (inactive) |
| CN1c2ccc(O)c(O)c2-c2cc(O)cc3c2C1CCC3 (stereo not drawn) | > 76.2 µM (inactive) | 29.9 µM (inactive) | 17.3 µM (inactive) | 20.3 µM (inactive) | 2.58 µM (inactive) | 20.7 µM (inactive) | 20.7 µM (inactive) | 13.9 µM (inactive) | 19.1 µM (inactive) | 35.2 µM (inactive) | 16.2 µM (inactive) | 23.7 µM (inactive) | 15.6 µM (inactive) | 15.9 µM (inactive) | 24.5 µM (inactive) | 21.6 µM (inactive) | 20.8 µM (inactive) | 16.3 µM (inactive) | 17.5 µM (inactive) | 18 µM (inactive) |
| COC(=O)[C@@H]1[C@@H](c2cccc(Cl)c2)[C@H](C(=O)OC)C2(C[C@@]1(C)O)NCCS2 (stereo partly drawn) | > 100 µM (inactive) | 55 µM (inactive) | > 100 µM (inactive) | > 100 µM (inactive) | 0.684 µM (active) | 81.1 µM (inactive) | > 100 µM (inactive) | 73.6 µM (inactive) | 44.2 µM (inactive) | > 100 µM (inactive) | 39.1 µM (inactive) | 64.7 µM (inactive) | 52.5 µM (inactive) | > 100 µM (inactive) | > 100 µM (inactive) | > 100 µM (inactive) | 77.4 µM (inactive) | 35.5 µM (inactive) | 36.6 µM (inactive) | > 100 µM (inactive) |
| OC(C1=C/C(=C\c2ccncc2)c2ccccc21)c1ccncc1 (stereo not drawn) | 12.9 µM (inactive) | 13.3 µM (inactive) | 19 µM (inactive) | 7.83 µM (inactive) | 7.41 µM (inactive) | 14.5 µM (inactive) | 5.65 µM (inactive) | 13.6 µM (inactive) | 11.8 µM (inactive) | 12.2 µM (inactive) | 12.4 µM (inactive) | 6.98 µM (inactive) | 12 µM (inactive) | 15.1 µM (inactive) | 15.8 µM (inactive) | 13.9 µM (inactive) | 14.3 µM (inactive) | 5.85 µM (inactive) | 23 µM (inactive) | 13.6 µM (inactive) |
| Cc1c2c(OCCN3CCCCC3)nn(C)c(=O)c2c(C)n1-c1ccccc1 | 16.4 µM (inactive) | 43.6 µM (inactive) | 44.4 µM (inactive) | 32.9 µM (inactive) | 35.7 µM (inactive) | 17.7 µM (inactive) | 50.6 µM (inactive) | 58.9 µM (inactive) | 30.9 µM (inactive) | 54.1 µM (inactive) | 18.5 µM (inactive) | 32.4 µM (inactive) | 32.3 µM (inactive) | 19.1 µM (inactive) | > 100 µM (inactive) | 29.4 µM (inactive) | 25.9 µM (inactive) | 19.5 µM (inactive) | 55 µM (inactive) | 67.5 µM (inactive) |
| CCOC(=O)CCC(NC(=O)c1ccc(N2CCN(c3c(C)nc(N)nc3N)CC2)cc1)C(=O)OCC (stereo not drawn) | 65.2 µM (inactive) | 0.213 µM (active) | > 100 µM (inactive) | 2.52 µM (inactive) | 0.109 µM (active) | > 64.1 µM (inactive) | > 78.2 µM (inactive) | 48.6 µM (inactive) | 3.15 µM (inactive) | > 100 µM (inactive) | 1.32 µM (inactive) | > 100 µM (inactive) | 0.251 µM (active) | > 100 µM (inactive) | > 100 µM (inactive) | 16.2 µM (inactive) | > 31.6 µM (inactive) | > 37.1 µM (inactive) | – | > 100 µM (inactive) |
| CC1(C)CCCC2(C)C3=C(CCC12)C(=O)OC3 (stereo not drawn) | > 100 µM (inactive) | > 100 µM (inactive) | 80.5 µM (inactive) | 53.6 µM (inactive) | > 100 µM (inactive) | > 100 µM (inactive) | > 100 µM (inactive) | > 100 µM (inactive) | 66.7 µM (inactive) | 97.9 µM (inactive) | > 100 µM (inactive) | > 100 µM (inactive) | > 100 µM (inactive) | > 100 µM (inactive) | > 100 µM (inactive) | > 100 µM (inactive) | > 100 µM (inactive) | > 100 µM (inactive) | > 100 µM (inactive) | > 100 µM (inactive) |
| O=[N+]([O-])c1ccc(C2NC(=S)NC3c4cc([N+](=O)[O-])ccc4CCCC23)cc1 (stereo not drawn) | 76.7 µM (inactive) | 78.3 µM (inactive) | 38.8 µM (inactive) | > 100 µM (inactive) | 39.4 µM (inactive) | > 100 µM (inactive) | 77.3 µM (inactive) | 15.4 µM (inactive) | > 100 µM (inactive) | > 100 µM (inactive) | > 100 µM (inactive) | > 100 µM (inactive) | > 100 µM (inactive) | > 100 µM (inactive) | > 100 µM (inactive) | 39.1 µM (inactive) | > 100 µM (inactive) | 16.6 µM (inactive) | > 100 µM (inactive) | > 100 µM (inactive) |
| COc1ccc2cc(CNCCCN3CCN(CCCNCc4ccc5cc(OC)ccc5c4)CC3)ccc2c1 | 1.66 µM (inactive) | 1.83 µM (inactive) | 1.78 µM (inactive) | 1.78 µM (inactive) | 0.45 µM (active) | 1.4 µM (inactive) | 1.73 µM (inactive) | 1.43 µM (inactive) | 0.49 µM (active) | 1.52 µM (inactive) | 1.6 µM (inactive) | 1.9 µM (inactive) | 1.6 µM (inactive) | 1.72 µM (inactive) | 1.17 µM (inactive) | 1.81 µM (inactive) | 1.71 µM (inactive) | 1.62 µM (inactive) | 0.327 µM (active) | 1.89 µM (inactive) |
| COC(=O)[C@@H](NC(=O)N(CCC#N)CCCN(C(=O)N[C@H](Cc1ccccc1)C(=O)OC)c1ccccc1)C(C)C | > 100 µM (inactive) | > 100 µM (inactive) | > 100 µM (inactive) | > 100 µM (inactive) | 85.1 µM (inactive) | > 100 µM (inactive) | > 100 µM (inactive) | 29.9 µM (inactive) | – | > 100 µM (inactive) | > 100 µM (inactive) | > 100 µM (inactive) | 57.1 µM (inactive) | 28.1 µM (inactive) | > 100 µM (inactive) | > 100 µM (inactive) | 34.3 µM (inactive) | > 100 µM (inactive) | > 100 µM (inactive) | > 100 µM (inactive) |
| CCN(CC)CCn1c2cc3c(cc2c(=O)c2cccnc21)OCO3 | 3.91 µM (inactive) | 5.11 µM (inactive) | > 10 µM (inactive) | 9.14 µM (inactive) | 5.31 µM (inactive) | 2.85 µM (inactive) | 5.14 µM (inactive) | 6.95 µM (inactive) | 4.04 µM (inactive) | > 10 µM (inactive) | 4.95 µM (inactive) | 4.44 µM (inactive) | 4.71 µM (inactive) | 4.84 µM (inactive) | 4.44 µM (inactive) | 4.92 µM (inactive) | 7.91 µM (inactive) | 3.83 µM (inactive) | 4.26 µM (inactive) | 6.01 µM (inactive) |
| COc1cccc(C2c3cc4c(cc3OC(C)(N3CCCC3)C2C)OCO4)c1O (stereo not drawn) | 6.4 µM (inactive) | 6.7 µM (inactive) | 3.26 µM (inactive) | 5.83 µM (inactive) | 9.06 µM (inactive) | 3.13 µM (inactive) | 7.91 µM (inactive) | 11.5 µM (inactive) | 2.36 µM (inactive) | 2 µM (inactive) | 3.08 µM (inactive) | 3.01 µM (inactive) | 1.63 µM (inactive) | 3.89 µM (inactive) | 8.36 µM (inactive) | 4.31 µM (inactive) | 12.2 µM (inactive) | 2.3 µM (inactive) | 4.01 µM (inactive) | 5.4 µM (inactive) |
